One compound from publication PMC5177656, “Cytosolic Triosephosphate Isomerase from Arabidopsis thaliana Is Reversibly Modified by Glutathione on Cysteines 127 and 218” (Frontiers in Plant Science, 2016) can be followed below.

For one assay, the target named is GRXC2 (Arabidopsis thaliana, UniProt Q9FNE2). Briefly: GSH-disulfide transhydrogenase assay coupled to glutathione reductase, NADPH at […] nm. In kind it is biochemical. As to conditions: 0.7 mM HED, 1 mM GSH, 0.2 mM NADPH, pH 8.0, 30°C.
Chain of GRXC2 (Q9FNE2 whole entry): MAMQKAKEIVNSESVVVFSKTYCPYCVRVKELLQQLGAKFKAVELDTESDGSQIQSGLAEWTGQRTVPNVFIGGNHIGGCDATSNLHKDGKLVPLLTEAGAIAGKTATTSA
The target of another assay is GRXC1 (Arabidopsis thaliana, UniProt Q8L8T2). The assay is described as above. In kind it is biochemical. As to conditions: 0.7 mM HED, 1 mM GSH, 0.2 mM NADPH, pH 8.0, 30°C.
Chain of GRXC1 (Q8L8T2 whole entry): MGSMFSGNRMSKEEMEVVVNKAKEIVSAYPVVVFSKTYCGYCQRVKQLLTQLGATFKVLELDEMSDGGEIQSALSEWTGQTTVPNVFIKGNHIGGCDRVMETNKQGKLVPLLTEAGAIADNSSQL

As to `OCCSSCCO` [HED], the “GSH-disulfide transhydrogenase assay coupled to glutathione reductase, NADPH at” value on GRXC2 and on GRXC1 was “specific activities of recombinant GRXs were measured using the artificial substrate HED” in each case.
